# Experimental data as given in US20240374523A1, “STABILIZED APILIMOD COMPOSITIONS AND USES THEREOF” (Orphai Therapeutics Inc., priority 2021, published 2024).
# Entries after “also recorded” stand apart in the source; their conditions may differ. Structures can show the parent of a compound that is named as a salt. Where two headings read alike, the source gives them in different places.
# Legend:
# [1] = cited from earlier work
# [2] = tested on: synovial IL-12 and IL-23 expression; details: patients with rheumatoid arthritis, Phase II (Krauz et al. 2012); cited from earlier work
# [3] = PXRD of residual solids after the IDR experiment; type: physicochemical; details: pellet surface after IDR experiment, compared with input API
# Description: X-Ray Powder Diffraction (XRPD). […] Configuration on the incidental beam side: variable divergence slits (10 mm irradiated length), 0.04 rad Soller slits, fixed anti-scatter slit) (0.50°, and 10 mm beam mask. Configuration on the diffracted beam side: variable anti-scatter slit (10 mm observed length) and 0.02 rad Soller slit. Samples were mounted flat on zero-background Si wafers.
# At the end of the IDR analysis, the pellet surface was analyzed by PXRD and compared to its corresponding input API for any physical changes.
# [4] = Solubility of apilimod vs pH in 0.1N HCl and Britton-Robinson buffers; type: physicochemical; details: for solubility at 3 days / solubility thermodynamic at 3 days: thermodynamic from solid; for solubility thermodynamic at 3 days: Britton-Robinson buffer
# Description: Next, the solubility of apilimod at various pH was evaluated. The samples were prepared at room temperature in 0.1N HCl (pH 1) and Britton-Robinson buffers (BRB) pH 2, 3, 4, 5, 6, 7 and 8. After 3 days, each sample was centrifuged for 30 min, the solution was filtered and the concentration of apilimod determined by HPLC analysis. HPLC analysis was carried out using an XTerra MS C18 (5 μm 4.6×150 mm) column and 18-minute gradient HPLC conditions.
# IL-12/IL-23 synthesis = details: oral administration, patients with psoriasis, open-label (Wada et al. 2012); cited from earlier work
# active Crohn's disease = active Crohn's disease (Sands et al. 2010); cited from earlier work
# [5] = Kinetic solubility in FaSSIF (pH 6.5); type: physicochemical; details: FaSSIF pH 6.5, 1 hour
# Description: Additional kinetic solubility studies were carried out in Fasted State Simulated Intestinal Fluid (FaSSIF) at pH6.5 at ambient temperature and the results are shown in FIG. 3. FaSSIF helps reveal how an oral drug is likely to dissolve and potentially be absorbed in fluid from the upper intestine after drinking a glass of water. […] After 1 hour of stirring, all samples appeared to be hazy suspensions, but after 4 and 24 hours their appearance changed to a milky white suspension by PXRD analysis.
# [6] = Intrinsic dissolution rate (stationary disk, 0.01N HCl); type: physicochemical; set-up: Intrinsic Dissolution Rate free base equivalent: unit not given here; details: 37° C.; for Intrinsic Dissolution Rate free base equivalent: disk pressed at 3900 psi, 700 mL 0.01N HCl, paddle 50 rpm, UV 333 nm
# Description: Stationary disks for apilimod free base and the nine apilimod salts were prepared. Intrinsic dissolution rate of the free base and the nine salts were prepared from preparations at 3900 psi. Each disk was placed into a flat bottom vessel containing 700 mL of 0.01N HCl medium equipped with a Distek Dissolution bath, and a Distek cirvulator/heater set to 37°° C. with a paddle speed of 50 rpm. The Opt-Diss 405 system single analytical wavelength settings was 333 nm with a background wavelength setting of 400 nm and reading were taken every 1 minute to 35 minutes. […] The kinetic solubility of the salt behavior is unpredictable and the dramatic difference between the non-mesylate salts was an unexpected discovery in the behavior of the salts.
# [7] = Kinetic solubility in FaSSGF (pH 1.6); details: after test in FaSSGF
# Description: Kinetic solubility studies were carried out on the various apilimod salts provided in Table 1 in Fasted State Simulated Gastric Fluid (FaSSGF) at pH 1.6 at ambient temperature. FaSSGF is a dissolution medium that has the average acidic pH and similar osmolarity of fasted gastric fluid. FaSSGF that can help reveal how an oral drug is likely to behave in the stomach after drinking a glass of water. The stability, solubility and dissolution data generated from testing in FaSSGF can help identify critical factors influencing a drug's absorption in the fasted state, and in turn facilitate the selection of the appropriate solid state and formulation approach for a drug.
# [8] = aqueous solubility of the disalt; cited from earlier work
# [9] = pKa of the counter-acid, not of the apilimod salt
molecule,measurement,setting,value
1-hydroxy-2-naphthoate,pKa of Acid (first value),[1]; [9],2.7
same,pKa of Acid (second value),[1]; [9],13.5
Cc1cccc(/C=N/Nc2cc(N3CCOCC3)nc(OCCc3ccccn3)n2)c1 [Apilimod],effect on synovial IL-12 and IL-23 expression,[2],failed to alter synovial IL-12 and IL-23 expression
same,Residual Solids By XRPD,[3]; listed as Free base,Matches Input
same,Residual Solids By XRPD,[3]; listed as free base,match the XRPD pattern of the initial input material
same,solubility at 3 days,"[4]; 0.1N HCl, pH 1, simulated gastric fluid, pH of approximately 1, read-out: solubility",> 10000 µg/mL
same,PXRD of Residuals Day 3,[4]; BRB pH 2,Phosphate salt
same,Conc Day 3,"[4]; BRB pH 2, medium pH 1.99, prep. 11 mg/mL, room temperature, Day 3 pH 2.75",137 µg/mL
same,PXRD of Residuals Day 3,[4]; BRB pH 3,Phosphate salt
same,PXRD of Residuals Day 3,[4]; BRB pH 4,"Free base, hydrate Group B"
same,PXRD of Residuals Day 3,[4]; BRB pH 5,"Free base, hydrate Group B"
same,PXRD of Residuals Day 3,[4]; BRB pH 6,"Free base, hydrate Group B"
same,PXRD of Residuals Day 3,[4]; BRB pH 7,"Free base, hydrate Group B"
same,PXRD of Residuals Day 3,[4]; BRB pH 8,"Free base, hydrate Group B"
same,solubility thermodynamic at 3 days,"[4]; aqueous buffer, BRB pH 2, medium pH 1.99, prep. 11 mg/mL, room temperature, Day 3 pH 2.75, read-out: Conc Day 3",137 µg/mL
same,solubility thermodynamic at 3 days,"[4]; aqueous buffer, BRB pH 3, medium pH 2.88, prep. 2.8 mg/mL, room temperature, Day 3 pH 3.61, read-out: Conc Day 3",17.3 µg/mL
same,solubility thermodynamic at 3 days,"[4]; aqueous buffer, BRB pH 4, medium pH 4.11, prep. 2.8 mg/mL, room temperature, Day 3 pH 4.22, read-out: Conc Day 3",2.3 µg/mL
same,solubility thermodynamic at 3 days,"[4]; aqueous buffer, BRB pH 5, medium pH 5.04, prep. 2.8 mg/mL, room temperature, Day 3 pH 5.08, read-out: Conc Day 3",0.2 µg/mL
same,solubility thermodynamic at 3 days,"[4]; aqueous buffer, BRB pH 6, medium pH 6.15, prep. 2.7 mg/mL, room temperature, Day 3 pH 6.18, read-out: Conc Day 3",< 0.1 µg/mL
same,solubility thermodynamic at 3 days,"[4]; aqueous buffer, BRB pH 7, medium pH 7.18, prep. 2.7 mg/mL, room temperature, Day 3 pH 7.21, read-out: Conc Day 3",< 0.1 µg/mL
same,solubility thermodynamic at 3 days,"[4]; pH 7.9, aqueous buffer, BRB pH 8, medium pH 7.90, prep. 2.8 mg/mL, room temperature, Day 3 pH 8.01, read-out: Conc Day 3",< 0.1 µg/mL
same,PXRD of Residuals Day 3,[4]; pH 1 (0.1N HCl),In solution; no excess solid
same,solubility at 3 days,"[4]; simulated gastric fluid, pH 1 (0.1N HCl), medium pH 1.08, prep. 11 mg/mL, room temperature, Day 3 pH 1.44, read-out: Conc Day 3",> 10700 µg/mL
same,immunomodulatory activity,IL-12/IL-23 synthesis,showed immunomodulatory activity supporting the inhibition of IL-12/IL-23 synthesis
same,efficacy over placebo,active Crohn's disease,did not demonstrate efficacy over placebo
same,tolerability,active Crohn's disease,well tolerated
Cc1cccc(/C=N/Nc2cc(N3CCOCC3)nc(OCCc3ccccn3)n2)c1 [HCl],solubility in FaSSIF relative to other forms,[5],higher solubility at 1 hour compared to the other salts and the freebase
same,Residual Solids By XRPD,[3],match the XRPD pattern of the initial input material; also recorded: Matches Input
same,pKa of acid,"[1]; strong acids required for disalt formation, per the '436 patent",−4.5
Cc1cccc(/C=N/Nc2cc(N3CCOCC3)nc(OCCc3ccccn3)n2)c1.Cc1cccc(/C=N/Nc2cc(N3CCOCC3)nc(OCCc3ccccn3)n2)c1.O=C(O)/C=C/C(=O)O [Hemi-fumarate],Residual Solids By XRPD,[3],Matches Input
same,Residual Solids By XRPD,[3]; listed as hemi-fumarate,match the XRPD pattern of the initial input material
same,intrinsic dissolution rate relative to D/L-Lactate and HCl salts,[6]; 0.01N HCl,less that 10-times lower
same,pKa of Acid (first value),[1]; [9],3.0
same,pKa of Acid (second value),[1]; [9],4.4
same,residues by powder diffraction (PXRD),[7],"crystalline, and matched input salts"
Cc1cccc(/C=N/Nc2cc(N3CCOCC3)nc(OCCc3ccccn3)n2)c1.O=C(O)CC(=O)O [Malonate],Residual Solids By XRPD,[3],Matches Input
same,Residual Solids By XRPD,[3]; listed as malonate,match the XRPD pattern of the initial input material
same,pKa of Acid (first value),[1]; [9],2.8
same,pKa of Acid (second value),[1]; [9],5.7
Cc1cccc(/C=N/Nc2cc(N3CCOCC3)nc(OCCc3ccccn3)n2)c1.O=P(O)(O)O [Phosphate],Residual Solids By XRPD,[3],Matches Input
same,Residual Solids By XRPD,[3]; listed as phosphate,match the XRPD pattern of the initial input material
same,pKa of Acid (first value),[1]; [9],2.0
same,pKa of Acid (second value),[1]; [9],7.1
same,pKa of Acid (third value),[1]; [9],12.3
Cc1cccc(/C=N/Nc2cc(N3CCOCC3)nc(OCCc3ccccn3)n2)c1.O=C(O)CCC(=O)O [Succinate],pKa of Acid (first value),[1]; [9],4.2
same,pKa of Acid (second value),[1]; [9],5.6
Cc1cccc(C=NNc2cc(N3CCOCC3)nc(OCCc3ccccn3)n2)c1.Cl.Cl [dichloride],solubility in water,[8],213000 µg/mL
Glycolate,Residual Solids By XRPD,[3],consistent with the input material and the poorly crystalline phase
same,Intrinsic Dissolution Rate free base equivalent,[6],0.2670
same,pKa of Acid (first value),[1]; [9],3.3
L-Tartrate,Residual Solids By XRPD,[3],match the XRPD pattern of the initial input material; also recorded: Matches Input
same,Intrinsic Dissolution Rate free base equivalent,[6],0.3399
same,pKa of Acid (first value),[1]; [9],3.0
same,pKa of Acid (second value),[1]; [9],4.4
Maleate,Residual Solids By XRPD,[3],Matches Input
same,Residual Solids By XRPD,[3]; listed as maleate,match the XRPD pattern of the initial input material
same,Intrinsic Dissolution Rate free base equivalent,[6],0.0871
same,pKa of Acid (first value),[1]; [9],1.9
same,pKa of Acid (second value),[1]; [9],6.2
same,residues by powder diffraction (PXRD),[7],"crystalline, and matched input salts"
